The results in this text go back to paper PMC12259270, “Sensory neuron–expressed FGF13 controls nociceptive signaling in diabetic neuropathy models” (The Journal of Clinical Investigation, 2025).

Residues, ends and D or L forms follow the SMILES beside them. *: point of attachment. Cbz = O=C(OCc1ccccc1)*; OtBu = CC(C)(C)O*

For this data set the following is noted: mouse, in vivo.

On to `COC(=O)[C@@H](NC(=O)[C@H](CCC(=O)OC(C)(C)C)NC(=O)[C@H](CC(C)C)NC(=O)[C@@H]1CCCN1C(=O)OCc1ccccc1)C(C)C` [PW164] (Cbz-PLE(OtBu)V-OMe), for which the brain/plasma ratio turned out to be 0 and the “volume of distribution (Vz)” value is 3.8 ± 0.71 L/kg. In addition, the Tmax (15 mg/kg) is 0.083.
